Results: US20240368145A1, “METHODS FOR TREATING CANCER” (IMMUNIC AG, priority 2021, published 2024)

How the values were obtained:
Format in all cases: cell-based
FKBP5 mRNA = assay: Expression of AR target genes (qRT-PCR) in 22Rv1: FKBP5; conditions: Homo sapiens; 22Rv1, 1 μM, 48h; relative to vehicle control (DMSO)
Method: The prostate cancer cell line 22Rv1 was treated for 48h with 1 μM Example compound 1, 1/1, 2/1, 2/2, 2/3, 2/4, 2/5, 2/6, 2/7, 2/8, 2/9 and 2/10 and reference compounds SR2211 and XY018. RNA was extracted using the RNA isolation kit XS (Macherey-Nagel) and following the manufacture's manual. RNA quantity was measured with the Nanodrop before reverse transcription using Superscript II (Invitrogen #100004925). For the quantitative real-time PCR with SYBR-Green (Qiagen #204074), the following primers were used:
qRT-PCR was performed using SYBR-Green (Qiagen #204074) reagents in a PCR cycler (Gorbett Research) Rotor Gene RG3000 with the following program: denaturation for 5′ at 95° C.; 40 cycles of 20″ at 95° C. and 15″ at 60° C.″ and at the end of the last cycle, the melting temperature of the products was determined by gradually increasing from 60° C. to 99° C. CT values from all samples were normalized to reference (housekeeping) genes using the mean CT value of the GAPDH and YWHAZ (reference genes). Next the values are put relative to the untreated control (vehicle/DMSO).

NOMO1 (AML) = assay: Oncotest inhibition of viability, NOMO1; conditions: Homo sapiens, NOMO-1; AML cell line NOMO1; read-out: IC50 range
OCIAML2 (AML) = assay: Oncotest inhibition of viability, OCIAML2; conditions: Homo sapiens, OCI-AML2; AML cell line OCIAML2; read-out: IC50 range
HUT78 (NHL) = assay: Oncotest inhibition of viability, HUT78; conditions: Homo sapiens; NHL cell line HUT78; read-out: IC50 range
JURKAT (ALL) = assay: Oncotest inhibition of viability, JURKAT; conditions: Homo sapiens; ALL cell line JURKAT; read-out: IC50 range
RAJI (NHL) = assay: Oncotest inhibition of viability, RAJI; conditions: Homo sapiens; NHL cell line RAJI; read-out: IC50 range
MV411 (AML) = assay: Oncotest inhibition of viability, MV411; conditions: Homo sapiens, MV4-11; AML cell line MV411; read-out: IC50 range
[1] = tested on: 24 different hematological cell lines; assay: Inhibition of viability in 24 different hematological cell lines (mean); conditions: mean over 24 different hematological cell lines; read-out: geometrical mean IC50, inhibition of viability
CCRFCEM/VCR (ALL) = assay: Oncotest inhibition of viability, CCRFCEM/VCR; conditions: Homo sapiens, CCRF-CEM; ALL cell line CCRFCEM/VCR; read-out: IC50 range

IC50 (JURKAT (ALL)) [nM] | IC50 (RAJI (NHL)) [nM] | IC50 (MV411 (AML)) [nM] | IC50 (CCRFCEM/VCR (ALL)) [nM] | SMILES | mrna remaining at 1 µM (FKBP5 mRNA) [%] | IC50 (NOMO1 (AML)) [nM] | IC50 (OCIAML2 (AML)) [nM] | IC50 (HUT78 (NHL)) [nM] | IC50 [1] [nM]
 |  |  |  | CC(C)(O)CCn1ncc(-c2onc(-c3c(F)cccc3Cl)c2-c2ncccn2)c1C(F)(F)F [2/8] | 38.1 |  |  |  | 
< 10 | < 10 | < 10 | 10 to 100 | COC(=O)c1c(-c2c(F)cccc2Cl)noc1-c1cnn(-c2cccc(Cl)c2)c1C(F)(F)F [Example 1, Methyl 3-(2-chloro-6-fluorophenyl)-5-(1-(3-chlorophenyl)-5-(trifluoromethyl)-1H-pyrazol-4-yl)isoxazole-4-carboxylate] |  | 100 to 1000 | 10 to 100 | < 10 | < 25
